Where two headings read alike, the source gives them in different places.
Legend:
[1] = target: T1, hTMEM16A (abc) (Homo sapiens, UniProt Q5XXA6, DEL476-501); assay: TMEM16A halide-sensitive YFP (eYFP) high-throughput screening assay; assay type: cell-based; set-up: expressed in transfected cells; conditions: for remaining activity at 5 µM / inhibition at 5 µM: 5 μM compound; for remaining activity at 5 µM: POC 0 = full block by benzbromarone, read-out: POC (percent of control) halide-sensitive YFP response in HTS; for inhibition at 5 µM: read-out: % inhibition of halide-sensitive YFP response during HTS
T1 sequence (Q5XXA6 with tags, fused parts or gaps isoform Q5XXA6-5 DEL539-564): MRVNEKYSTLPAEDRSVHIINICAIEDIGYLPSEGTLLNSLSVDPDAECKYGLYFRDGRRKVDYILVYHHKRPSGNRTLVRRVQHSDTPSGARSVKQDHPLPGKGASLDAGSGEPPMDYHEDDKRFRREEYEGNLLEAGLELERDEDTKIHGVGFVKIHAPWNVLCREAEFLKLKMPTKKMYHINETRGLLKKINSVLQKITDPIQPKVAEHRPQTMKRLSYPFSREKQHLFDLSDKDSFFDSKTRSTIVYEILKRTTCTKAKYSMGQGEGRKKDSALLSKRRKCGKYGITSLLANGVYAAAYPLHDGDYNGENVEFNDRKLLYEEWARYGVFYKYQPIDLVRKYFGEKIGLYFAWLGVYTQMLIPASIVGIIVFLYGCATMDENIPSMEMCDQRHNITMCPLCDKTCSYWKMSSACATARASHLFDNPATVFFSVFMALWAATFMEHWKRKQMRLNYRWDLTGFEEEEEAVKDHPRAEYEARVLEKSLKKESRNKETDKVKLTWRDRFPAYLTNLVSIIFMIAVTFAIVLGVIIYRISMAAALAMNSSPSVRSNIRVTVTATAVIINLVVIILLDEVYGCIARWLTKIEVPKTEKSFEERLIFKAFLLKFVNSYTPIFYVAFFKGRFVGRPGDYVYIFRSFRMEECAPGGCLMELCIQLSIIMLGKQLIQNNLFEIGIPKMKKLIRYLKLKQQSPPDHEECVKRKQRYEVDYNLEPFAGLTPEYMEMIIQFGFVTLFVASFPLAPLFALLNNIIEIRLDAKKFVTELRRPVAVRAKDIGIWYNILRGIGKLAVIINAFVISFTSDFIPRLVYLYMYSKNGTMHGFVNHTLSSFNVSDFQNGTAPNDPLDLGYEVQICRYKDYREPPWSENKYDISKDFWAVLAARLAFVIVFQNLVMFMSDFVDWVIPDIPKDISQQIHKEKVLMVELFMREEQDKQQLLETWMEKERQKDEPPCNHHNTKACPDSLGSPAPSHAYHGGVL
Experimental: The High-Throughput-Screening clone HEK293T:eYFP: TMEM16A(abc) stably expressing eYFP (H149Q,I153L) and human TMEM16A(abc) was generated by stable transfection followed by functional clone selection. HEK293T:eYFP (H149Q,I153L) was cultivated in propagation medium DMEM (PAN #P04-03550) containing 10% FBS (PAN #3302-P281402), 1x Pen/Strep (PAN #P06-07100), 1x L-glutamine (PAN #P04-80100), 10 mM HEPES (PAN #P05-01100) and 0.5 μg/ml puromycin (Sigma #P7255) and transfected with pIREShyg3:huTMEM16A(abc). Stable cell pool was generated by cultivation in propagation medium containing 0.5 μg/ml puromycin and 200 μg/ml hygromycin B for 20 days. Cell pool was then diluted in the same medium and seeded in 384-well microtiter plates. Grown clones were replicated into daughter plates using a CyBio Felix pipetting platform (Analytik Jena AG). Daughter plates were analyzed using the eYFP assay essentially as described in the HTS protocol below using a FLIPR-Tetra. Clones showing maximal quenching of eYFP fluorescence intensity after addition of trigger solution (assay buffer containing NaI and ionomycin) were selected for propagation from the mother plate and further characterized with regard to HTS assay development performance parameters including inhibition by the benchmark compound benzbromarone, S/B and relevant HTS quality control statistics (Z-factor, Z′-factor, RZ-factor, RZ′-factor). One clone was finally selected as HTS clone and used throughout the entire HTS campaign to identify TMEM16A antagonists.
For the HTS screen, the screening cell line HEK293T:eYFP(H149Q,I153L):TMEM16A(abc) stably expressing halide sensitive YFP (eYFP (H149Q,I153L)) and human TMEM16A(abc) were propagated in DMEM (PAN #P04-03550) containing 10% FBS (PAN #3302-P281402), 1x Pen/Strep (PAN #P06-07100), 1x L-glutamine (PAN #P04-80100), 10 mM HEPES (PAN #P05-01100), 0.5 μg/ml puromycin (Sigma #P7255), and 150 μg/ml hygromycin B (Life Technologies #10687-010) in Corning TC-treated flasks. Twenty four hours prior to the assay 11,000 cells were seeded per well in 30 μl assay plating medium [propagation medium containing 0.01% Pluronic F-68 (PAN #P08-2100)] in Corning CellBIND 384-Well Flat Clear Bottom Black Polystyrene Microplates (Corning #3683) and cultivated for 24 h at 37°C. Before initiating the fully automated and scheduled HTS sequence, cell plates were transferred to an incubator and stored at RT and 0% CO2. Library compounds were delivered in Greiner 384 PP plates (Greiner #784201) containing 1mM compound dissolved in DMSO in columns 1–22 and DMSO in columns 23 and 24 and were stored in a stacker at RT. Further dilutions of compounds were generated by fully automated liquid handling using a CyBio 384-well/25 μl pipetting head (Analytik Jena AG) by diluting 0.5 μl compound (1 mM in DMSO) in 20 μl assay buffer [1xHBSS (Life Technologies #14025050) containing 10 mM HEPES (PAN #P05-01100) and 0.01% Pluronic F-68 (PAN #P08-2100), adjusted to pH 7.4] in Greiner 384 PP plates (Greiner #784201). Intermediate compound plates contained 25 μM library compounds in assay buffer containing 2.5% DMSO in columns 1–22, assay buffer containing 2.5% DMSO as neutral control in column 23 and 100 μM Benzbromarone (Sigma #B5774) in assay buffer containing 2.5% DMSO in column 24 as ligand control (benchmark antagonist) and were stored in a stacker at RT. Simultaneous to compound dilution medium was aspirated from cell plates using a Biotek 405 microplate washer followed by washing the cells twice with 65 μl/well assay buffer. With the final aspiration of assay buffer, the residual volume was adjusted to 15 μl. […] Cell plates were incubated for 30 min at RT and 0% CO2. After incubation cell plates were transferred to a FLIPR-Tetra and 25 μl trigger solution [assay buffer containing 20 mM sodium iodide (Sigma #383112) and 4 μM ionomycin (Sigma #I0634; stock solution 10 mM in DMSO)] was added before reading iodide-quenching of eYFP fluorescence intensity. […]

[2] = system: human bronchial smooth muscle cells; assay: Histamine-induced depolarization of human bronchial smooth muscle cells (FLIPR membrane potential); assay type: cell-based; conditions: donor 199524, 1 M histamine (so in the source), read-out: EC50 inhibition of histamine-induced depolarization (converted)
[3] = HEK293T:eYFP:TMEM16A(abc), 30 min preincubation, 10 mM iodide, 2 μM ionomycin, read-out: IC50 in the eYFP HTS assay

| SMILES | remaining activity at 5 µM [1] [%] | inhibition at 5 µM [1] [%] | EC50 [2] [nM] | other results |
| --- | --- | --- | --- | --- |
| N#Cc1c(C(F)(F)F)cc(O)n2c1nc1ccccc12 [1PBC] | 74.8 | 25.2 | – | IC50 ([1]; 22-point dose-response, read-out: IC50, TMEM16A eYFP assay dose response of the HTS campaign): 1050 nM |
| CCc1oc2ccccc2c1C(=O)c1cc(Br)c(O)c(Br)c1 [Benzbromarone] | – | – | 9900 | – |
| COc1cc([N+](=O)[O-])ccc1NC(=O)c1cc(Cl)c2ccccc2c1O [Cpd 4] | 61.1 ± 7.8 | 38.9 | – | IC50 [1, 3]: 970 nM |
| Oc1ccc(Cl)cc1Cc1cc(Cl)ccc1O [Dichlorophen] | – | – | 4100 | – |
| O=C(Nc1ncc([N+](=O)[O-])s1)c1cccs1 [NTTP] | – | – | – | IC50 ([1]; supplement, read-out: IC50, TMEM16A (abc) eYFP HTS assay): 2840 nM |
| O=C(Nc1ccc([N+](=O)[O-])cc1Cl)c1cc(Cl)ccc1O [Niclosamide] | 69 ± 3.3 | 31 | – | IC50 [1, 3]: 140 nM |
| CCc1c(C)nc(SCC(=O)Nc2nc(-c3ccc(OC)cc3)cs2)[nH]c1=O [T16Ainh-A01] | – | – | 3900 | – |

— publication PMC6382696, “Drug Repurposing: The Anthelmintics Niclosamide and Nitazoxanide Are Potent TMEM16A Antagonists That Fully Bronchodilate Airways” (Frontiers in Pharmacology, 2019)
